# According to patent US8853420B2, “Compounds” (Boehringer Ingelheim International GmbH, priority 2008, dated 2014):
# Target: T1, Xenopus laevis Aurora B/INCENP complex (Xenopus laevis, UniProt Q6DE08)
# T1 construct: equipped at the N-terminal position with a GST tag (amino acids 60-361); GST (N, cleaved yes); made in house; host or cells: E. coli BL21 (DE3)
# Test: Aurora-B kinase assay (radioactive enzyme inhibition assay)
# Format: biochemical
# Details: test substance at 1 μM; percentage of the positive control (maximum value without test substance)
# Description: Example Aurora-B Kinase Assay
# A radioactive enzyme inhibition assay was developed using E. coli-expressed recombinant Xenopus laevis Aurora B wild-type protein equipped at the N-terminal position with a GST tag (amino acids 60-361) in a complex with Xenopus laevis INCENP (amino acids 790-847), which is obtained from bacteria and purified. In equivalent manner a Xenopus laevis Aurora B mutant (G96V) in a complex with Xenopus laevis INCENP^790-847 may also be used.
# Expression and Purification
# The coding sequence for Aurora-B^60-361 from Xenopus laevis is cloned into a modified version of pGEX-6T (Amersham Biotech) via BamHI and SalI cutting sites. The vector contains two cloning cassettes which are separated by a ribosomal binding site, allowing bi-cistronic expression. In this configuration Xenopus laevis Aurora B is expressed by the first cassette, and the Xenopus laevis INCENP^790-847 is expressed by the second cassette. The resulting vector is pAUB-IN^847.
# First of all the E. coli strain BL21 (DE3) is co-transformed with pUBS520 helper plasmid and pAUB-IN^847, after which protein expression is induced using 0.3 mM IPTG at an OD600 of 0.45-0.7. The expression is then continued for approx. 12-16 h at 23-25° C. with agitation.
# The bacteria are then removed by centrifuging and the pellet is lysed in lysis buffer (50 mM Tris/Cl pH 7.6, 300 mM NaCl, 1 mM DTT, 1 mM EDTA, 5% glycerol, Roche Complete Protease Inhibitor tablets) using ultrasound, using 20-30 mL lysis buffer per liter of E. coli culture. The lysed material is freed from debris by centrifugation (12000 rpm, 45-60 min, JA20 rotor). The supernatant is incubated with 300 μL of equilibrated GST Sepharose Fast Flow (Amersham Biosciences) per liter of E. coli culture for 4-5 h at 4° C. Then the column material is washed with 30 volumes of lysis buffer and then equilibrated with 30 volumes of cleavage buffer (50 mM Tris/Cl pH 7.6, 150 mM NaCl, 1 mM DTT, 1 mM EDTA). To cleave the GST tag from Aurora B, 10 units of Prescission Protease (Amersham Biosciences) are used per milligram of substrate and the mixture is incubated for 16 h at 4° C. The supernatant which contains the cleavage product is loaded onto a 6 mL Resource Q column (Amersham Biosciences) equilibrated with ion exchange buffer (50 mM Tris/Cl pH 7.6, 150 mM NaCl, 1 mM DTT, 1 mM EDTA). The Aurora B/INCENP complex is caught as it flows through, then concentrated and loaded onto a Superdex 200 size exclusion chromatography (SEC) column equilibrated with SEC buffer (10 mM Tris/Cl pH 7.6, 150 mM NaCl, 1 mM DTT, 1 mM EDTA). Fractions which contain the AuroraB/INCENP complex are collected and concentrated using Vivaspin concentrators (molecular weight exclusion 3000-5000 Da) to a final concentration of 12 mg/mL. Aliquots (e.g. 240 ng/μL) for kinase assays are transferred from this stock solution into freezing buffer (50 mM Tris/Cl pH 8.0, 150 mM NaCl, 0.1 mM EDTA, 0.03% Brij-35, 10% glycerol, 1 mM DTT) and stored at −80° C.
# Test substances are placed in a polypropylene dish (96 wells, Greiner #655 201), in order to cover a concentration frame of 10 μM-0.0001 μM. The final concentration of DMSO in the assay is 5%. 30 μL of protein mix (50 mM tris/Cl pH 7.5, 25 mM MgCl2, 25 mM NaCl, 167 μM ATP, 10 ng Xenopus laevis Aurora B/INCENP complex in freezing buffer) are pipetted into the 10 μl of test substance provided in 25% DMSO and this is incubated for 15 min at RT. Then 10 μL of peptide mix (100 mM tris/Cl pH 7.5, 50 mM MgCl2, 50 mM NaCl, 5 μM NaF, 5 μM DTT, 1 μCi gamma-P33-ATP [Amersham], 50 μM substrate peptide [biotin-[…] or multimers thereof, or biotin-[…] or multimers thereof, or biotin-[…]]) are added. The reaction is incubated for 75 min (ambient temperature) and stopped by the addition of 180 μL of 6.4% trichloroacetic acid and incubated for 20 min on ice. […]
# T1 sequence (Q6DE08 60-361): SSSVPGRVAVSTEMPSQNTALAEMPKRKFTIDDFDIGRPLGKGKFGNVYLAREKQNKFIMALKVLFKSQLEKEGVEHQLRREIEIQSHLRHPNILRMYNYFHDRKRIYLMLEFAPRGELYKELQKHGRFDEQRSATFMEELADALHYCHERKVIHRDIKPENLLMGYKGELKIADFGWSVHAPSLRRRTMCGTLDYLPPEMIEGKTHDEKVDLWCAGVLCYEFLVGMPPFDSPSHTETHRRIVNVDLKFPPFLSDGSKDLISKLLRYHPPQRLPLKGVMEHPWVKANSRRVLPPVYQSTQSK
# T1 sequence (O13024 790-847 partner limits assumed): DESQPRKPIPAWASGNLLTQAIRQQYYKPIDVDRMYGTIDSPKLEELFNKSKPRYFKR
row,remaining activity at 1 µM [%],SMILES
1,2.96,CN(C)Cc1ccc(N/C(=C2\C(=O)Nc3cc(C#CC(=O)NCC(F)F)ccc32)c2ccccc2)cc1 [Example 167]
2,4.55,CC(C)Nc1ccc(-c2ccc3c(c2)NC(=O)/C3=C(\Nc2ccc(C(=O)N3CCN(C4CCOCC4)CC3)cc2)c2ccccc2)cn1 [Example 129]
3,16.8,CC(C)Nc1ncc(-c2ccc3c(c2)NC(=O)/C3=C(\Nc2ccc(N3CCN(C)CC3)nc2)c2ccccc2)cn1 [Example 86]
4,27.6,CN(C)Cc1ccc(N/C(=C2\C(=O)Nc3cc(-c4cccc(S(=O)(=O)N(C)C)c4)ccc32)c2ccccc2)cc1 [Example 65]
5,3.84,CN(C)Cc1ccc(N/C(=C2\C(=O)Nc3cc(-c4cnc(NCC5CC5)nc4)ccc32)c2ccccc2)cc1 [Example 51]
6,24.5,CN(C)Cc1ccc(N/C(=C2\C(=O)Nc3cc(-c4cccnc4)ccc32)c2ccccc2)cc1 [Example 71]
7,2.67,O=C(C#Cc1ccc2c(c1)NC(=O)/C2=C(\Nc1ccc(CN2CCCC2)cc1)c1ccccc1)Nc1ccccc1 [Example 174]
8,7.08,CCNc1ccc(-c2ccc3c(c2)NC(=O)/C3=C(\Nc2ccc(CN(C)C)cc2)c2ccccc2)cn1 [Example 5]
9,3.21,C[C@H](CO)NC(=O)C#Cc1ccc2c(c1)NC(=O)/C2=C(\Nc1ccc(CN2CCCC2)cc1)c1ccccc1 [Example 172]
10,8.61,CN(C)Cc1ccc(N/C(=C2\C(=O)Nc3cc(C#CC(=O)NC4CCC4)c(F)cc32)c2ccccc2)cc1 [Example 155]
11,8.83,CC(C)Nc1ccc(-c2ccc3c(c2)NC(=O)/C3=C(\Nc2ccc(C(=O)N3CCN(CC(F)(F)F)CC3)cc2)c2ccccc2)cn1 [Example 125]
12,3.02,CC(C)NC(=O)C#Cc1cc2c(cc1S(=O)(=O)N1CC(F)(F)C1)/C(=C(/Nc1ccc(N3CCN(C)CC3)cc1)c1ccccc1)C(=O)N2 [Example 156]
13,11,COc1cncc(-c2ccc3c(c2)NC(=O)/C3=C(\Nc2ccc(CN(C)C)cc2)c2ccccc2)c1 [Example 63]
14,96.2,CC(C)Nc1ncc(-c2ccc3c(c2)NC(=O)/C3=C(\NC2CCOCC2)c2ccccc2)cn1 [Example 77]
15,2.78,CCNc1ncc(-c2ccc3c(c2)NC(=O)/C3=C(\Nc2ccc(CN(C)C)cc2)c2ccccc2)cn1 [Example 52]
16,14.1,CN(C)Cc1ccc(N/C(=C2\C(=O)Nc3cc(-c4cn[nH]c4)ccc32)c2ccccc2)cc1 [Example 61]
17,12.6,CN(C)Cc1ccc(N/C(=C2\C(=O)Nc3cc(-c4cnc(NCC5CC5)cn4)ccc32)c2ccccc2)cc1 [Example 2]
18,0.48,CC(C)Nc1ccc(-c2ccc3c(c2)NC(=O)/C3=C(\Nc2ccc(C(=O)N3CC[C@H](N(C)C)C3)cc2)c2ccccc2)cn1 [Example 136]
19,15.6,CNc1ccc(-c2ccc3c(c2)NC(=O)/C3=C(\Nc2ccc(CN(C)C)cc2)c2ccccc2)cn1 [Example 8]
20,4.64,CC(C)Nc1ccc(-c2ccc3c(c2)NC(=O)/C3=C(\Nc2ccc(C(C)(C)C(=O)N3CCN[C@@H](C)C3)cc2)c2ccccc2)cn1 [Example 99]
21,30.9,CN(C)Cc1ccc(N/C(=C2\C(=O)Nc3cc(-c4cccc(C#N)c4)ccc32)c2ccccc2)cc1 [Example 39]

row,remaining activity at 1 µM [%],SMILES
1,3.03,CCN1CCC2(CCN(C(=O)c3ccc(N/C(=C4\C(=O)Nc5cc(-c6ccc(NC(C)C)nc6)ccc54)c4ccccc4)cc3)C2)C1 (centres unmarked) [Example 117]
2,2.08,CN(C)Cc1ccc(N/C(=C2\C(=O)Nc3cc(C#CC(=O)NC4CCCC4)ccc32)c2ccccc2)cc1 [Example 163]
3,0.77,CC(C)Nc1ccc(-c2ccc3c(c2)NC(=O)/C3=C(\Nc2ccc(C(=O)N3CCN(C)CC3)cc2)c2ccccc2)cn1 [Example 135]
4,2.13,CC(C)Nc1ncc(-c2ccc3c(c2)NC(=O)/C3=C(\Nc2ccc(CN(C)C)cc2)c2ccccc2)cn1 [Example 46]
5,3.44,CN(C)Cc1ccc(N/C(=C2\C(=O)Nc3cc(-c4cnc(NC5CC5)nc4)ccc32)c2ccccc2)cc1 [Example 48]
6,1.65,CCNC(=O)C#Cc1ccc2c(c1)NC(=O)/C2=C(\Nc1ccc(CN(C)C)c(F)c1)c1ccccc1 [Example 176]
7,1.54,COc1cc(N/C(=C2\C(=O)Nc3cc(-c4ccc(NC(C)C)nc4)ccc32)c2ccccc2)ccc1C(=O)N1CC[C@H](N(C)C)C1 [Example 110]
8,1.76,CN(C)Cc1ccc(N/C(=C2\C(=O)Nc3cc(-c4cnc(NC5CCC5)nc4)ccc32)c2ccccc2)cc1 [Example 45]
9,1.2,CNCC#Cc1cc2c(cc1S(=O)(=O)N1CC(F)(F)C1)/C(=C(/Nc1ccccc1)c1ccccc1)C(=O)N2 [Example 153]
10,1.57,COc1cc(N/C(=C2\C(=O)Nc3cc(-c4ccc(NC(C)C)nc4)ccc32)c2ccccc2)ccc1C(=O)N1CCCN(C)CC1 [Example 105]
11,5.74,CCCNc1ccc(-c2ccc3c(c2)NC(=O)/C3=C(\Nc2ccc(CN(C)C)cc2)c2ccccc2)cn1 [Example 57]
12,1.39,O=C(C#Cc1ccc2c(c1)NC(=O)/C2=C(\Nc1ccc(CN2CCCC2)cc1)c1ccccc1)Nc1ccccc1F [Example 170]
13,139,CN(C)Cc1ccc(N/C(=C2\C(=O)Nc3cc(-c4cnc(C(=O)O)nc4)ccc32)c2ccccc2)cc1 [Example 42]
14,157,CN(C)Cc1ccc(N/C(=C2\C(=O)Nc3cc(-c4ccc(C(=O)O)nc4)ccc32)c2ccccc2)cc1 [Example 54]
15,2.32,COc1cc(N/C(=C2\C(=O)Nc3cc(-c4cnc(NC(C)C)nc4)ccc32)c2ccccc2)ccc1C(=O)O [Example 80]
16,1.89,CNC(=O)C#Cc1cc2c(cc1S(=O)(=O)c1ccc(F)cc1)/C(=C(/Nc1ccc(CN(C)C)cc1)c1ccccc1)C(=O)N2 [Example 151]
17,1.26,CC(C)Nc1ncc(-c2ccc3c(c2)NC(=O)/C3=C(\Nc2ccc(C(C)(C)C(=O)O)cc2)c2ccccc2)cn1 [Example 81]
18,9.48,CC(C)Nc1ncc(-c2ccc3c(c2)NC(=O)/C3=C(\Nc2cccc(CN3CCCC3)c2)c2ccccc2)cn1 [Example 91]
19,22,CN(C)Cc1ccc(N/C(=C2\C(=O)Nc3cc(-c4ccc(OCC5CC5)nc4)ccc32)c2ccccc2)cc1 [Example 15]
20,2.62,CN1CCN(c2ccc(N/C(=C3\C(=O)Nc4cc(C#CC(=O)NC5CCC5)c(S(=O)(=O)N5CCC(F)(F)C5)cc43)c3ccccc3)cc2)CC1 [Example 154]
